# Measurements as given in doi:10.1101/2024.08.19.608619, “Discovery of potent SARS-CoV-2 nsp3 macrodomain inhibitors uncovers lack of translation to cellular antiviral response” (bioRxiv, 2024).
# Where two headings read alike, the source gives them in different places.
# Experiments:
# SARS-CoV-2 nsp3-mac1 [1] = biological target: T1, SARS-CoV-2 nsp3-mac1 (Severe acute respiratory syndrome coronavirus 2, UniProt P0DTD1); test: biochemical; design: SARS-CoV-2 nsp3 macrodomain TR-FRET single point, per cent inhibition, n=2
# SARS-CoV-2 nsp3-mac1 [2] = biological target: T1, SARS-CoV-2 nsp3-mac1; test: biochemical; type: biochemical; details: SARS-CoV-2 nsp3 macrodomain TR-FRET single point
# [3] = read-out: perc_inhibition_mean, batch_name=ASAP-0000384-001
# [4] = read-out: perc_inhibition_mean, batch_name=ASAP-0000385-001
# [5] = read-out: perc_inhibition_mean, batch_name=ASAP-0000386-001
# [6] = read-out: perc_inhibition_mean, batch_name=ASAP-0000387-001
# [7] = read-out: perc_inhibition_mean, batch_name=ASAP-0000388-001
# [8] = read-out: perc_inhibition_mean, batch_name=ASAP-0000389-001
# [9] = read-out: perc_inhibition_mean, batch_name=ASAP-0000390-001
# [10] = read-out: perc_inhibition_mean, batch_name=ASAP-0000391-001
# [11] = read-out: perc_inhibition_mean, batch_name=ASAP-0000392-001
# [12] = read-out: perc_inhibition_mean, batch_name=ASAP-0000393-001
# [13] = read-out: perc_inhibition_mean, batch_name=ASAP-0000394-001
# [14] = read-out: perc_inhibition_mean, batch_name=ASAP-0000395-001
# [15] = read-out: perc_inhibition_mean, batch_name=ASAP-0000396-001
# [16] = read-out: perc_inhibition_mean, batch_name=ASAP-0000397-001
# [17] = read-out: perc_inhibition_mean, batch_name=ASAP-0000398-001
# [18] = read-out: perc_inhibition_mean, batch_name=ASAP-0000399-001
# [19] = read-out: perc_inhibition_mean, batch_name=ASAP-0000400-001
SMILES,perc_inhibition_mean (SARS-CoV-2 nsp3-mac1 [2]; concentration 49.75 uM),perc_inhibition_mean (SARS-CoV-2 nsp3-mac1 [2]; concentration 99.5 uM),other results
CC(C)[C@@H](Nc1ncnc2[nH]ccc12)c1nncn1C [ASAP-0000384],4.589%,10.829%,inhibition at 49.75 µM (SARS-CoV-2 nsp3-mac1 [1]; [3]): 4.59%; inhibition at 99.5 µM (SARS-CoV-2 nsp3-mac1 [1]; [3]): 10.8%
O=C(c1cnc2[nH]ncc2c1)N1CCC(c2ccn3ncc(C(=O)N4CCCCC4)c3c2)CC1 [ASAP-0000385],15.807%,34.368%,inhibition at 49.75 µM (SARS-CoV-2 nsp3-mac1 [1]; [4]): 15.8%; inhibition at 99.5 µM (SARS-CoV-2 nsp3-mac1 [1]; [4]): 34.4%
NC(=O)c1ncccc1C(=O)N1CCC(c2ccn3ncc(C(=O)N4CCCCC4)c3c2)CC1 [ASAP-0000386],19.978%,36.045%,inhibition at 49.75 µM (SARS-CoV-2 nsp3-mac1 [1]; [5]): 20%; inhibition at 99.5 µM (SARS-CoV-2 nsp3-mac1 [1]; [5]): 36%
Cc1cc(C(=O)N2CCC(c3ccn4ncc(C(=O)N5CCCCC5)c4c3)CC2)[nH]n1 [ASAP-0000387],16.559%,31.572%,inhibition at 49.75 µM (SARS-CoV-2 nsp3-mac1 [1]; [6]): 16.6%; inhibition at 99.5 µM (SARS-CoV-2 nsp3-mac1 [1]; [6]): 31.6%
Cc1cc(N)ncc1C(=O)N1CCC(c2ccn3ncc(C(=O)N4CCCCC4)c3c2)CC1 [ASAP-0000388],19.535%,32.615%,inhibition at 49.75 µM (SARS-CoV-2 nsp3-mac1 [1]; [7]): 19.5%; inhibition at 99.5 µM (SARS-CoV-2 nsp3-mac1 [1]; [7]): 32.6%
O=C(c1cccnc1S)N1CCC(c2ccn3ncc(C(=O)N4CCCCC4)c3c2)CC1 [ASAP-0000389],32.298%,52.653%,inhibition at 49.75 µM (SARS-CoV-2 nsp3-mac1 [1]; [8]): 32.3%; inhibition at 99.5 µM (SARS-CoV-2 nsp3-mac1 [1]; [8]): 52.7%
Cc1nc(C(=O)N2CCC(c3ccn4ncc(C(=O)N5CCCCC5)c4c3)CC2)c(C)[nH]1 [ASAP-0000390],16.798%,27.519%,inhibition at 49.75 µM (SARS-CoV-2 nsp3-mac1 [1]; [9]): 16.8%; inhibition at 99.5 µM (SARS-CoV-2 nsp3-mac1 [1]; [9]): 27.5%
CN1CCO[C@@H](CNC(=O)c2cnn3ccc(C4CCN(C(=O)c5ccccc5)CC4)cc23)C1 [ASAP-0000391],-12.021%,-11.503%,inhibition at 49.75 µM (SARS-CoV-2 nsp3-mac1 [1]; [10]): -12%; inhibition at 99.5 µM (SARS-CoV-2 nsp3-mac1 [1]; [10]): -11.5%
CN1CCC[C@H](NC(=O)c2cnn3ccc(C4CCN(C(=O)c5ccccc5)CC4)cc23)C1 [ASAP-0000392],-6.989%,-5.439%,inhibition at 49.75 µM (SARS-CoV-2 nsp3-mac1 [1]; [11]): -6.99%; inhibition at 99.5 µM (SARS-CoV-2 nsp3-mac1 [1]; [11]): -5.44%
Cc1[nH]cnc1C(=O)N1CCC(c2ccn3ncc(C(=O)N4CCCCC4)c3c2)CC1 [ASAP-0000393],16.419%,32.041%,inhibition at 49.75 µM (SARS-CoV-2 nsp3-mac1 [1]; [12]): 16.4%; inhibition at 99.5 µM (SARS-CoV-2 nsp3-mac1 [1]; [12]): 32%
O=C(CCN(Cc1cccc(Cl)c1)C(=O)[C@H]1CCOC1)N1CCNCC1 [ASAP-0000394],4.078%,-3.965%,inhibition at 49.75 µM (SARS-CoV-2 nsp3-mac1 [1]; [13]): 4.08%; inhibition at 99.5 µM (SARS-CoV-2 nsp3-mac1 [1]; [13]): -3.96%
Cc1[nH]nc(C(=O)N2CCC(c3ccn4ncc(C(=O)N5CCCCC5)c4c3)CC2)c1C [ASAP-0000395],18.038%,33.801%,inhibition at 49.75 µM (SARS-CoV-2 nsp3-mac1 [1]; [14]): 18%; inhibition at 99.5 µM (SARS-CoV-2 nsp3-mac1 [1]; [14]): 33.8%
O=C(c1ccccc1)N1CCC(c2ccn3ncc(C(=O)N4CCCC[C@H](O)C4)c3c2)CC1 [ASAP-0000396],17.833%,29.785%,inhibition at 49.75 µM (SARS-CoV-2 nsp3-mac1 [1]; [15]): 17.8%; inhibition at 99.5 µM (SARS-CoV-2 nsp3-mac1 [1]; [15]): 29.8%
O=C(CCN(Cc1cccc(Cl)c1)C(=O)c1ncccc1Cl)N1CCNCC1 [ASAP-0000397],2.753%,7.518%,inhibition at 49.75 µM (SARS-CoV-2 nsp3-mac1 [1]; [16]): 2.75%; inhibition at 99.5 µM (SARS-CoV-2 nsp3-mac1 [1]; [16]): 7.52%
C[C@@]1(C(N)=O)CCCN1C(=O)c1cnn2ccc(C3CCN(C(=O)c4ccccc4)CC3)cc12 [ASAP-0000398],-8.039%,10.386%,inhibition at 49.75 µM (SARS-CoV-2 nsp3-mac1 [1]; [17]): -8.04%; inhibition at 99.5 µM (SARS-CoV-2 nsp3-mac1 [1]; [17]): 10.4%
O=C(N[C@@H]1COCC[C@H]1O)c1cnn2ccc(C3CCN(C(=O)c4ccccc4)CC3)cc12 [ASAP-0000399],-5.013%,-4.477%,inhibition at 49.75 µM (SARS-CoV-2 nsp3-mac1 [1]; [18]): -5.01%; inhibition at 99.5 µM (SARS-CoV-2 nsp3-mac1 [1]; [18]): -4.48%
Cc1cc(CNC(=O)c2cnn3ccc(C4CCN(C(=O)c5ccccc5)CC4)cc23)n(C)n1 [ASAP-0000400],-5.508%,-8.125%,inhibition at 49.75 µM (SARS-CoV-2 nsp3-mac1 [1]; [19]): -5.51%; inhibition at 99.5 µM (SARS-CoV-2 nsp3-mac1 [1]; [19]): -8.12%
